Measurements taken from patent publication US20240067672A1, “FLAVONE DERIVATIVE FOR TREATING TUMORS AND USE THEREOF” (SICHUAN FUSHENGYUAN TECHNOLOGY CO., LTD, priority 2019, published 2024).
In brackets after ≈: the same amount, converted by molar mass. Read-outs that look alike come from different tables or passages of the source.

Assays:
HepG2 subcutaneous tumor = experiment: Anti-tumor activity in vivo, HepG2 nude mouse model; design: species or system Balb/c nude mice; conditions: HepG2 nude mice, intraperitoneally every day for 21 days; for anti-tumor activity in vivo (tumor volume, FIG. 1): high and low dose; for tumor inhibition rate: equal mole of Icaritin (Icaritin 10 mg/kg)
Description: According to the investigation results of solubility and cell activity, compounds 51 and 57 with high solubility and strong cell activity were selected to evaluate the anti-hepatoma activity in vivo on HepG2 nude mouse models.
Human hepatoma cells HepG2 were cultivated to logarithmic growth phase in DMEM culture medium containing 10% fetal calf serum and 1% antibiotics (penicillin and streptomycin), and digested by adding 0.25% pancreatin. After the resulting cells were cultivated in DMEM and the pancreatin was removed, they were centrifuged at 1000 rpm for 3 min. Then the cells were collected and washed with free medium until no bubbles produced as observed by naked eyes, and then ° entrifuged. After discarding the supernatant, the cells were resuspended with free medium adjust the cell density to 1×10^6/100 μL.
70 Balb/c nude mice raised in an SPF-grade animal house were taken. 100 μL, HepG2 cells were inoculated subcutaneously at the right lateral rib of each nude mouse. The growing status of nude mice was observed and the subcutaneous tumor volume was measured every day. One week after inoculation, obvious nodules were formed subcutaneously in nude mice. Administration was initiated when the tumor grew to 100 mm^3.
Tumor volume increased to 80-120 mm^3 at two weeks after inoculation, marked as Day 0. The nude mice were randomly divided into 6 groups with 6 mice in each group: a normal saline group (control), an Icaritin group (Icarian), a yyhs-i-b high dose group, a yyhs-1-b low dose group, a yyhs-2-a high dose group, and a yyhs-2-a low dose group. Administration was performed intraperitoneally every day for 21 days totally.
The administration doses were: Icarian at 10 mg/kg, compound 51 high dose at 25.30 mg/kg, low dose at 12.65 mg/kg, compound 57 high dose at 22.91 mg/kg, and low dose at 11.45 mg/kg.
From day 0, the body weights and tumor volumes of nude mice were measured once every three days, in which the maximum diameter (a) of tumor was measured first, and then the longest radial line length (b) perpendicular to the maximum diameter line was measured, in mm, thereby calculating the tumor volume according to the following formula: […]
At the end of the treatment cycle, blood was taken from orbital vein of the nude mice for later blood routine test. Then the nude mice were sacrificed using cervical vertebra dislocation. After taking photos, the tumors were stripped immediately and photographed for record. From day 0, the body weights of each group of nude mice were weighed and recorded every 3 days, and at the same time, the tumor volumes of these nude mice were recorded. The average body weight and tumor volume were calculated for each group, and the curve of body weight versus tumor volume of the nude mice was plotted according to the statistical data.
The hearts, livers, spleens, lungs, and kidneys were subsequently picked from the nude mice, soaked with 4% paraformaldehyde and then preserved at a low temperature of 4° C. for later investigation of the mechanism of the anti-tumor in vivo. The tumor volume growth curve was plotted with the time as the horizontal coordinate, and with the tumor volume as the vertical coordinate. The tumor volume growth curves and the appearance of tumors are seen in FIG. 1. The body weight changing curves of mice are plotted in FIG. 2, with the time as the horizontal coordinate, and the body weight of mice as the vertical coordinate.

SMMC7721 hepatoma cells = experiment: Anti-tumor activity in vitro, MTT method, SMMC7721; assay type: cell-based, human; conditions: for IC50: MTT; for IC50 compared with Icaritin, SMMC7721 72 h: SMMC7721, 72 h after administration
Experimental: (§1) The effects of Icaritin and its derivatives on the activities of HepG2 and SMMC7721 hepatoma cells were investigated by a MTT method. […] After reaction for 48, 7 2 h, each well was added with 20 μL 5 mg/mL, of MTT solution, and incubated in a cell incubator for 3-4 h. Then the liquid in the well plates was sucked to discard. Each well was added with 150 μL of dimethyl sulfoxide (DMSO), and shaken on an enzyme-labeled instrument for 30 s at ambient temperature so that the Formazan crystals were dissolved sufficiently. The absorbance value A of each well at 570 nm was detected by the enzyme-labeled instrument, and the experiment was repeated for 3 times.

[1] = Determination of solubility (HPLC); assay type: physicochemical; conditions: for solubility: thermodynamic from solid
Experimental: About 1.325 mg of Icaritin and the synthesized derivative were weighed and dissolved in 1.5 mL methanol respectively, then diluted with methanol into solutions of 10, 20, 50, 100, 150, 200, 500 μg/mL, and filtered over an organic-system filter head of 0.45 μm into sample bottles, obtaining the samples for test. Four parts of Icaritin and the synthesized derivative were weighed respectively, 1.00 mg for each part, and placed into 1.5 mL EP tubes, and 1 mL of water, normal saline, PBS, and 0.1% Tween 80 were respectively added thereto. The obtained solutions were ultrasonicated for 1 h, placed in a water bath at 37° C. overnight, and centrifuged at 10000 r/min for 3 min to collect supernatants. The supernatants were taken into sample bottles and detected by HPLC. The experiments were conducted in parallel for three times. The detection of HPLC is conducted under conditions of a chromatographic column of waters Symmetry C18, a mobile phase of a solution of methanol and water with a ratio of 80:20, a flow rate of 1.0 mL/min, a column temperature of 30° C., a detection wavelength of 210 nm, a run time of 30 min, and a sample load of 20 μL.

HepG2 hepatoma cells = experiment: Anti-tumor activity in vitro, MTT method, HepG2; assay type: cell-based, human; conditions: for IC50 compared with Icaritin, HepG2 72 h: HepG2, 72 h after administration; for IC50 compared with Icaritin, 48 and 72 h: HepG2 and SMMC7721, 48 and 72 h; for IC50: MTT
Experimental: as §1

[2] = Homo sapiens, SMMC-7721, SMMC7721, 48 h, read-out: IC50 SMMC7721 48 h
[3] = Homo sapiens, SMMC-7721, SMMC7721, 72 h, read-out: IC50 SMMC7721 72 h
[4] = Homo sapiens, HepG2, 48 h, read-out: IC50 HepG2 48 h
[5] = Homo sapiens, HepG2, 72 h, read-out: IC50 HepG2 72 h

IC50 (SMMC7721 hepatoma cells; [2]) [µM] | IC50 (SMMC7721 hepatoma cells; [3]) [µM] | IC50 compared with Icaritin, SMMC7721 72 h (SMMC7721 hepatoma cells) | solubility compared with that of the bulk drug (Icaritin) [1] | IC50 compared with Icaritin, HepG2 72 h (HepG2 hepatoma cells) | IC50 compared with Icaritin, 48 and 72 h (HepG2 hepatoma cells) | IC50 (HepG2 hepatoma cells; [4]) [µM] | IC50 (HepG2 hepatoma cells; [5]) [µM] | SMILES | anti-tumor activity in vivo (tumor volume, FIG. 1) (HepG2 subcutaneous tumor) | tumor inhibition rate (HepG2 subcutaneous tumor) [%] | further results
9.3 ± 0.35 | 5.99 ± 0.49 | less than that of Icaritin | improved effectively | less than that of Icaritin | less than those of Icaritin | 14.9 ± 0.22 | 7.09 ± 0.38 | COc1ccc(-c2oc3c(CC=C(C)C)c(O)cc(O)c3c(=O)c2OC(=O)CCC(=O)OCCOCCOCCOCCOCc2cn(CCO[C@H]3O[C@@H](CO)[C@H](O)[C@@H](O)[C@@H]3O)nn2)cc1 [Compound 51] | excellent anti-tumor activities in vivo and are dose-dependent | 95 | solubility ([1]; 37 °C, aqueous buffer): 48.5 ± 0.948 µg/mL (≈ 52 µM); solubility ([1]; 37 °C, aqueous with cosolvent or surfactant or cyclodextrin): 51.5 ± 1.23 µg/mL (≈ 55.3 µM); solubility ([1]; 37 °C, saline or isotonic): 47.9 ± 0.993 µg/mL (≈ 51.4 µM); solubility ([1]; 37 °C, water): 50.3 ± 1.31 µg/mL (≈ 54 µM)
– | – | less than that of Icaritin | improved effectively | less than that of Icaritin | less than those of Icaritin | – | – | COc1ccc(-c2oc3c(CC=C(C)C)c(O)cc(O)c3c(=O)c2OC(=O)CCC(=O)OCCOCCOCCOCc2cn(C3OC(CO)C(O)C(O)C3O)nn2)cc1 (stereo not shown) [Compound 57] | excellent anti-tumor activities in vivo and are dose-dependent | 90 | IC50 (SMMC7721 hepatoma cells; SMMC7721, 48 h, read-out: IC50 SMMC7721 48 h): 10.3 ± 1.19 µM; IC50 (SMMC7721 hepatoma cells; SMMC7721, 72 h, read-out: IC50 SMMC7721 72 h): 5.82 ± 1.04 µM; Solubility, 0.1% Tween 80 [1]: 6.508 ± 0.742 µg/mL (≈ 7.71 µM); Solubility, Normal Saline [1]: 16.383 ± 0.941 µg/mL (≈ 19.4 µM); Solubility, PBS [1]: 16.391 ± 1.029 µg/mL (≈ 19.4 µM); Solubility, Water [1]: 17.710 ± 1.012 µg/mL (≈ 21 µM); IC50 (HepG2 hepatoma cells; HepG2, 48 h, read-out: IC50 HepG2 48 h): 10.3 ± 1.19 µM; IC50 (HepG2 hepatoma cells; HepG2, 72 h, read-out: IC50 HepG2 72 h): 7.91 ± 0.98 µM
23.2 ± 1.02 | 15 ± 0.66 | – | – | – | – | 20.6 ± 2.82 | 16.1 ± 1.27 | COc1ccc(-c2oc3c(CC=C(C)C)c(O)cc(O)c3c(=O)c2O)cc1 [Icaritin, reference compound] | – | 53 | solubility ([1]; aqueous buffer, PBS, 37° C. overnight, n = 3, read-out: Solubility, PBS): 8.1 ± 0.897 µg/mL (≈ 22 µM); solubility ([1]; aqueous with cosolvent or surfactant or cyclodextrin, 0.1% Tween 80, 37° C. overnight, n = 3, read-out: Solubility, 0.1% Tween 80): 8.11 ± 0.672 µg/mL (≈ 22 µM); solubility ([1]; saline or isotonic, normal saline, 37° C. overnight, n = 3, read-out: Solubility, Normal Saline): 8.1 ± 1.01 µg/mL (≈ 22 µM); solubility ([1]; water, 37° C. overnight, n = 3, read-out: Solubility, Water): 8.57 ± 0.832 µg/mL (≈ 23.3 µM)
